Test systems include OVCAR-5 ovarian; PC-3 prostate; SF-268 CNS; BT-549 breast; KM12 colon; SF-539 CNS; SK-MEL-5 melanoma; HT29 colon; HL-60(TB) leukemia; MALME-3M melanoma.
Test in all cases: inhibition of tumour cell growth, NCI panel, 48 h

Consider eleven compounds from PubChem BioAssay (NCI).

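1) Cells in 96-well plates. 2) Compound, 48 h, 5 concentrations. 3) Linear interpolation between surrounding doses. 4) Unreached endpoint = highest concentration. Here, GI50 denotes the concentration required for 50% inhibition of growth. The concentration for full growth arrest is given as TGI.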

Turning to `CC(C)C1(NC(=O)C2CC3c4cccc5[nH]cc(c45)CC3N(C)C2)OC2(O)C3CCCN3C(=O)C(Cc3ccccc3)N2C1=O` (centres undefined), the TGI was greater than 100 µM with OVCAR-5 ovarian; greater than 100 µM in the assay on PC-3 prostate; greater than 100 µM with SF-268 CNS; greater than 100 µM in the assay on BT-549 breast; 82.2 µM in the assay with KM12 colon; greater than 100 µM in the assay on SF-539 CNS. In addition, the TGI with SK-MEL-5 melanoma is greater than 100 µM; in the assay on HT29 colon it was greater than 100 µM; in the assay on HL-60(TB) leukemia, 24.9 µM.

Consider `CCOC(=O)c1c(-c2ccccc2)[n+](=O)c2cc(F)c(F)cc2n1[O-]`, for which the GI50 with OVCAR-5 ovarian was 2.23 µM; in the assay on PC-3 prostate, 1.65 µM; with SF-268 CNS, 1.66 µM; in the assay on BT-549 breast it was 1.6 µM; in the assay on KM12 colon, 2.01 µM; in the assay on SF-539 CNS it was 1.95 µM. For the same compound, the GI50 in the assay with SK-MEL-5 melanoma was 1.53 µM; with HT29 colon it was 1.51 µM; with HL-60(TB) leukemia, 0.717 µM. In addition, the TGI with OVCAR-5 ovarian stood at 4.13 µM; with PC-3 prostate, 3.16 µM; in the assay with SF-268 CNS it was 4.07 µM; in the assay on BT-549 breast, 3.26 µM; in the assay with KM12 colon, 9.91 µM; in the assay on SF-539 CNS it was 3.68 µM. Besides, the results for the TGI with SK-MEL-5 melanoma, in the assay with HT29 colon and in the assay on HL-60(TB) leukemia were 3.52 µM, 3.27 µM and 3.77 µM, respectively.

As for `CC1CCCC(C#N)(NOC2=NCCN2)C1` (centres undefined), the GI50 in the assay with OVCAR-5 ovarian was greater than 100 µM; in the assay on PC-3 prostate it was greater than 100 µM; with SF-268 CNS, 60.3 µM; in the assay on BT-549 breast, 19 µM; with KM12 colon, 48.4 µM; with SF-539 CNS, 15.5 µM. Also, the GI50 with SK-MEL-5 melanoma is 14.9 µM; in the assay on HT29 colon, 92.2 µM; in the assay with HL-60(TB) leukemia, 16.8 µM. The TGI in the assay on OVCAR-5 ovarian was greater than 100 µM; in the assay on PC-3 prostate, greater than 100 µM; in the assay on SF-268 CNS, greater than 100 µM; in the assay on BT-549 breast it was 42.3 µM; with KM12 colon, greater than 100 µM; in the assay on SF-539 CNS it was 40.4 µM. The TGI with SK-MEL-5 melanoma was 34.2 µM; in the assay with HT29 colon, greater than 100 µM; with HL-60(TB) leukemia it was 93 µM.

As to `CCCCCCC(=O)C/C(CCC(=O)N(Cc1ccccc1)Cc1ccccc1)=N\NC(N)=O`, the TGI with OVCAR-5 ovarian, in the assay with MALME-3M melanoma, with SF-268 CNS, with KM12 colon, in the assay on SF-539 CNS and with SK-MEL-5 melanoma was greater than 100 µM in each case. The TGI in the assay on HT29 colon and in the assay on HL-60(TB) leukemia was greater than 100 µM in each case.

`COc1cc2c(cc1OC)C(C(CBr)CBr)N(C1CCCC1)CC2` (centres undefined): the TGI with OVCAR-5 ovarian, with MALME-3M melanoma, with SF-268 CNS, in the assay on KM12 colon, with SF-539 CNS and with SK-MEL-5 melanoma was greater than 100 µM throughout. The TGI in the assay on HT29 colon and in the assay on HL-60(TB) leukemia was greater than 100 µM each time.

In the case of `CC(/C=C/C(=O)c1sc(C(N)=S)nc1C)=C\c1ccccc1`, the TGI with OVCAR-5 ovarian, with MALME-3M melanoma, in the assay with SF-268 CNS, in the assay with KM12 colon, with SF-539 CNS and with SK-MEL-5 melanoma was greater than 100 µM throughout. Also, the TGI in the assay on HT29 colon and in the assay on HL-60(TB) leukemia was greater than 100 µM each time.

Consider `O=C1CS/C(=N/S(=O)(=O)c2ccc(N3N=C4c5ccccc5CC4C3c3cccs3)cc2)N1C(=O)c1ccccc1` (centres undefined), for which the GI50 in the assay with OVCAR-5 ovarian is 32.2 µM; with PC-3 prostate it was 38.1 µM; with SF-268 CNS, greater than 100 µM; in the assay on BT-549 breast it was 33.5 µM; with KM12 colon it was 21.4 µM; in the assay with SF-539 CNS, 44.6 µM. In addition, the GI50 with SK-MEL-5 melanoma was 22.7 µM; in the assay with HT29 colon, 76.1 µM. The TGI was greater than 100 µM with OVCAR-5 ovarian; greater than 100 µM in the assay on PC-3 prostate; greater than 100 µM in the assay on SF-268 CNS; greater than 100 µM in the assay on BT-549 breast; 56.4 µM in the assay with KM12 colon; greater than 100 µM with SF-539 CNS. The TGI with SK-MEL-5 melanoma was 69.6 µM; in the assay with HT29 colon, greater than 100 µM.

With `C=C(C)[C@@H]1CCc2c(O)c(O)c(=O)cc(C)c2C1`, the TGI was greater than 100 µM with OVCAR-5 ovarian; greater than 100 µM with PC-3 prostate; 35 µM with MALME-3M melanoma; greater than 100 µM in the assay on SF-268 CNS; greater than 100 µM in the assay on BT-549 breast; greater than 100 µM in the assay on KM12 colon. Also, the TGI was 7.4 µM in the assay on SF-539 CNS, 3.49 µM with SK-MEL-5 melanoma and greater than 100 µM in the assay on HT29 colon.

For the compound `Brc1cc(C2OCCCO2)ccc1OCc1ccccc1`, the TGI in the assay on OVCAR-5 ovarian is 92.5 µM; in the assay on MALME-3M melanoma, greater than 100 µM; in the assay with SF-268 CNS it was greater than 100 µM; in the assay on KM12 colon, greater than 100 µM; in the assay on SF-539 CNS, greater than 100 µM; in the assay with SK-MEL-5 melanoma it was 71.4 µM. The TGI is 33.2 µM in the assay with HT29 colon and greater than 100 µM with HL-60(TB) leukemia.

Turning to `C=CC1C(CC2OC(CO)C(O)C(O)C2O)OC=C2C(=O)OCCC21O` (centres undefined), the GI50 is 14.4 µM in the assay on OVCAR-5 ovarian; 11 µM in the assay with PC-3 prostate; 17.8 µM in the assay with MALME-3M melanoma; 24.3 µM with SF-268 CNS; 3.05 µM in the assay on KM12 colon; 15.7 µM in the assay on SK-MEL-5 melanoma. Moreover, in the assay with HT29 colon, the GI50 was 2.23 µM. Also, the TGI with OVCAR-5 ovarian is 44.5 µM; in the assay on PC-3 prostate, 27.9 µM; in the assay on MALME-3M melanoma, 51 µM; in the assay with SF-268 CNS, 89 µM; in the assay on KM12 colon, 30.1 µM; in the assay with SK-MEL-5 melanoma it was 37.5 µM. The compound also displayed a TGI with HT29 colon of 8.02 µM.

As to `CCC1CCCCN1CC(C(C)=O)C(c1ccccc1)c1c(O)c2ccccc2oc1=O` (centres undefined), the TGI with OVCAR-5 ovarian, with MALME-3M melanoma, in the assay with SF-268 CNS, in the assay with KM12 colon, in the assay on SF-539 CNS and with SK-MEL-5 melanoma was greater than 100 µM in each case. Further, the TGI in the assay with HT29 colon and in the assay on HL-60(TB) leukemia was greater than 100 µM throughout.
